We go through 16 compounds from ChEMBL document CHEMBL1909046, “DrugMatrix in vitro pharmacology data”.

Structures are written as SMILES. *1 amine or outer side, *2 acyl side, *3 side chain or, on linkers, in order; H or OH if unused. Where a SMILES comes first, the peptide text is derived from it. Bridges are numbered along the chain shown (N, C = ends). Roman numbers before positions name the chains, in order. [ ]: non-standard residue; d: D form. Actinocin(1to9) = Cc1c2oc3c(C)ccc(C(=O)[*:2])c3nc-2c(C(=O)[*:1])c(N)c1=O; NMeV = CN[C@H](C(=O)O)C(C)C; Sar = CNCC(=O)O

Series [1] has as its target T1, Alpha-2A adrenergic receptor (Homo sapiens, UniProt P08913). Also: in other assays of this panel Not Active means under 50% inhibition at 10 µM.
T1 sequence (P08913 whole entry): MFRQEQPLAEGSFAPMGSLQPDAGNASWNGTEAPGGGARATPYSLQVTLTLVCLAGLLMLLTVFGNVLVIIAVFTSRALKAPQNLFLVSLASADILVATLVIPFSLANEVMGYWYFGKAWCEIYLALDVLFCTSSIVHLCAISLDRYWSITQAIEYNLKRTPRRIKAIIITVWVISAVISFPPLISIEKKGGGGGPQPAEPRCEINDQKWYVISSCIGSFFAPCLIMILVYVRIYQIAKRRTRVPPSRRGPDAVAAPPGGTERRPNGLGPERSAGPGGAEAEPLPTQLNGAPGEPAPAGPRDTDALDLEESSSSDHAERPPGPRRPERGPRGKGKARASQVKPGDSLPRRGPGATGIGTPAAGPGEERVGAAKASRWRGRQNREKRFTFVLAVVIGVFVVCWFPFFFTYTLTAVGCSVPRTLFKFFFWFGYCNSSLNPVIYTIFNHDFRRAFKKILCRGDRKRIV
The format is cell membranes, Sf9, Membrane. The conditions noted are these: for Ki: read-out: Ki.

Series [2] deals with Voltage-gated inwardly rectifying potassium channel KCNH2 (Homo sapiens, UniProt Q12809). The conditions noted are these: hek293.
Series [3] addresses T2, Muscarinic acetylcholine receptor M5 (Homo sapiens, UniProt P08912).
T2 sequence (P08912 whole entry): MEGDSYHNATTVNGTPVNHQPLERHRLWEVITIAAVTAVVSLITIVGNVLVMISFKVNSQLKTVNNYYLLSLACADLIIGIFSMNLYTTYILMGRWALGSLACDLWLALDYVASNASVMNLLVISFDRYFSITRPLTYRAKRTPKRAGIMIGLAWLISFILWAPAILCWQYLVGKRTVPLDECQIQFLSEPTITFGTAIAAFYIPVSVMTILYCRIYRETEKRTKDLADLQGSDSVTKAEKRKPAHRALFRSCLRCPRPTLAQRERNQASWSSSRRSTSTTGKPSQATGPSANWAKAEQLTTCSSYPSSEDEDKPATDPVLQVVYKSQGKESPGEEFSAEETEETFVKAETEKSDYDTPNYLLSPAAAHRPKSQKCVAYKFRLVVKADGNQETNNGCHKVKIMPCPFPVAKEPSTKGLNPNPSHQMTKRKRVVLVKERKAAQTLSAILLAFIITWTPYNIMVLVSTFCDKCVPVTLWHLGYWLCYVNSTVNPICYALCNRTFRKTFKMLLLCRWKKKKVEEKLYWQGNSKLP
Format: cell membranes, CHO-K1, Membrane. Particulars: cho-k1.

Series [4] concerns the target Prostaglandin G/H synthase 1 (Homo sapiens, UniProt P23219). Nature of the series: biochemical. The conditions noted are these: platelet. The format is tissue-based, Platelet.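 Also: inhibition of COX-1 enzyme activity, with arachidonic acid supplied as substrate; in other assays of this panel Not Active means under 50% inhibition at 10 µM.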
Series [5] can be described thus: DRUGMATRIX: Purinergic P2X radioligand binding (ligand: [3H] alpha, beta-Methylene-ATP). Particulars: Not Active = under 50% inhibition at 10 µM. Format: cell membranes, Oryctolagus cuniculus, New Zealand albino, Urinary bladder, Membrane.
Series [6] is described as follows: DRUGMATRIX: Glutamate, AMPA radioligand binding (ligand: [3H] AMPA). The format is cell membranes, Rattus norvegicus, Wistar, Cerebral cortex, Membrane. The conditions noted are these: Not Active = under 50% inhibition at 10 µM.

In general, IC50 refers to the midpoint of a concentration-inhibition curve. As a reminder, the Ki is the equilibrium dissociation constant of an inhibitor or competing ligand from its target.

Prostaglandin G/H synthase 1, sequence (P23219 whole entry): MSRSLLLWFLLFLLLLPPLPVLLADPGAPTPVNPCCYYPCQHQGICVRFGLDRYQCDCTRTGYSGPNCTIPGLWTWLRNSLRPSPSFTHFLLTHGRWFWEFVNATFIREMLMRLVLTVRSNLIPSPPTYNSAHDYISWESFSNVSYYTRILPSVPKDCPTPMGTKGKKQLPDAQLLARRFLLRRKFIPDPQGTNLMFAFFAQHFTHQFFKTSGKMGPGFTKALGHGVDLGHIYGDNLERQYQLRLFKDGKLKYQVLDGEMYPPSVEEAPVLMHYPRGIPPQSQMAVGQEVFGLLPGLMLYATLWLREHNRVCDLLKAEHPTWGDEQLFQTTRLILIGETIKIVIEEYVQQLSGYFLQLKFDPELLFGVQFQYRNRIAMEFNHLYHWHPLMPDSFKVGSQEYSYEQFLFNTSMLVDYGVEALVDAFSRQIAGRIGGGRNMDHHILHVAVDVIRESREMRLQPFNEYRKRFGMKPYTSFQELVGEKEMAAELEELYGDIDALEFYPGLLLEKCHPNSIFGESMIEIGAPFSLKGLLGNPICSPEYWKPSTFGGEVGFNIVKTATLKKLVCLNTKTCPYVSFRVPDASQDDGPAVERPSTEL
Voltage-gated inwardly rectifying potassium channel KCNH2, sequence (Q12809 whole entry): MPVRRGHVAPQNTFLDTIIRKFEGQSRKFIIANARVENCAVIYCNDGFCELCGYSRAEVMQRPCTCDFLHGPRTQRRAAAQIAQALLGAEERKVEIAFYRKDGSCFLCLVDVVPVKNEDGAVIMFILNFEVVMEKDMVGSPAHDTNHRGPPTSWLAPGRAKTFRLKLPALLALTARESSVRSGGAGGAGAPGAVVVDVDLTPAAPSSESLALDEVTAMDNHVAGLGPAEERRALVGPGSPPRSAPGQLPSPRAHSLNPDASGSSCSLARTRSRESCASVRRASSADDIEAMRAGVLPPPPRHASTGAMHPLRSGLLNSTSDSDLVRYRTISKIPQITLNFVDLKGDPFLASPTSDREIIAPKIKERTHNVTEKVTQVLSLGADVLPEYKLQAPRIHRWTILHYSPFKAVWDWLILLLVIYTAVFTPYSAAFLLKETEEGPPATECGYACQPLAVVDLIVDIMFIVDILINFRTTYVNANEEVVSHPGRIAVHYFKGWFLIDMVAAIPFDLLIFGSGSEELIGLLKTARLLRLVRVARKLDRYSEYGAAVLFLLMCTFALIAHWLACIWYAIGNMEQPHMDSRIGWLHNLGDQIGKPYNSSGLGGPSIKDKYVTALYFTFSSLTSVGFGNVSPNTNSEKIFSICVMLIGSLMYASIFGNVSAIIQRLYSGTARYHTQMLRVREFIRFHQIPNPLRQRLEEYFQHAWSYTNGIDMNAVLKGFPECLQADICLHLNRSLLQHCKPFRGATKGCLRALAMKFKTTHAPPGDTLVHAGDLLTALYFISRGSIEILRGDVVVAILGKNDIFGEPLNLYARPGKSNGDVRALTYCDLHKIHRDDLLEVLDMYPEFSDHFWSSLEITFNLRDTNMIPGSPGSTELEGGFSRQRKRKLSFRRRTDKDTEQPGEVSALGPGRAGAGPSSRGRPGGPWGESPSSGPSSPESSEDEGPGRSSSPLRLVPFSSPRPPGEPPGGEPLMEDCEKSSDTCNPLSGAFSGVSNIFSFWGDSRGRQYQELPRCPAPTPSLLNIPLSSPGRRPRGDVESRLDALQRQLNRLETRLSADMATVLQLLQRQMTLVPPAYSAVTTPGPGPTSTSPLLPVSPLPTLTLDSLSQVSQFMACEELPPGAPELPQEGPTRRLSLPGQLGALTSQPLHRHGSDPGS

Take `CC(C)(Oc1ccc(Cl)cc1)C(=O)O` [CLOFIBRIC ACID]: the IC50 entry in series [1] (sf9), in series [2], in series [3], in series [4], in series [5] and in series [6] was “Not Active” in each case. The Ki entry in series [2], in series [5] and in series [6] was “Not Active” in each case.

For the compound `Cc1cc(C(C#N)c2ccc(Cl)cc2)c(Cl)cc1NC(=O)c1cc(I)cc(I)c1O` (stereo unspecified) [CLOSANTEL], the IC50 entry in series [1] (sf9), in series [2], in series [3], in series [4], in series [5] and in series [6] was “Not Active” in each case. Moreover, the inhibition constant (Ki) result in series [2], in series [5] and in series [6] was “Not Active” in each case.

On to `Cc1onc(-c2ccccc2Cl)c1C(=O)N[C@@H]1C(=O)N2[C@@H]1SC(C)(C)[C@@H]2C(=O)O` [CLOXACILLIN], for which the IC50 entry in series [1] (sf9), in series [2], in series [3], in series [4], in series [5] and in series [6] was “Not Active” in each case. Also, the Ki entry in series [2], in series [5] and in series [6] was “Not Active” throughout.

Take `CC1CC(OC(=O)C(O)c2ccccc2)CC(C)(C)C1` (stereo unspecified) [CYCLANDELATE]: the IC50 entry in series [1] (sf9), in series [2], in series [3], in series [4], in series [5] and in series [6] was “Not Active” each time. In addition, the Ki result in series [2], in series [5] and in series [6] was “Not Active” in each case.

As to `Cc1c2oc3c(C)ccc(C(=O)N[C@@H]4C(=O)N[C@H](C(C)C)C(=O)N5CCC[C@H]5C(=O)N(C)CC(=O)N(C)[C@@H](C(C)C)C(=O)O[C@@H]4C)c3nc-2c(C(=O)N[C@@H]2C(=O)N[C@H](C(C)C)C(=O)N3CCC[C@H]3C(=O)N(C)CC(=O)N(C)[C@@H](C(C)C)C(=O)O[C@@H]2C)c(N)c1=O` [DACTINOMYCIN] (I: T[dV]P[Sar][NMeV] / II: T[dV]P[Sar][NMeV]; ester I:1-I:C, II:1-II:C; linker I:N-II:N via Actinocin(1to9)), the 50% inhibitory concentration (IC50) entry in series [1] (sf9), in series [2], in series [3], in series [4], in series [5] and in series [6] was “Not Active” each time. The Ki entry in series [2], in series [5] and in series [6] was “Not Active” each time.

`Cc1c(O)c(=O)ccn1C` [DEFERIPRONE]: the half-maximal inhibitory concentration (IC50) result in series [1] (sf9), in series [2], in series [3], in series [4], in series [5] and in series [6] was “Not Active” each time. In addition, the Ki entry in series [2], in series [5] and in series [6] was “Not Active” each time.

With `O=c1oc2ccccc2c(O)c1Cc1c(O)c2ccccc2oc1=O` [DICUMAROL], the 50% inhibitory concentration (IC50) result in series [1] (sf9), in series [2], in series [3], in series [4], in series [5] and in series [6] was “Not Active” each time. Moreover, the Ki result in series [2], in series [5] and in series [6] was “Not Active” each time.

As to `C[C@H]1O[C@@H](O[C@H]2[C@@H](O)C[C@H](O[C@H]3[C@@H](O)C[C@H](O[C@H]4CC[C@@]5(C)[C@H](CC[C@@H]6[C@@H]5C[C@@H](O)[C@]5(C)[C@@H](C7=CC(=O)OC7)CC[C@]65O)C4)O[C@@H]3C)O[C@@H]2C)C[C@H](O)[C@@H]1O` [DIGOXIN], the IC50 result in series [1] (sf9), in series [2], in series [3], in series [4], in series [5] and in series [6] was “Not Active” throughout. Besides, the Ki entry in series [2], in series [5] and in series [6] was “Not Active” throughout.

With `CC(C)[C@@]1(NC(=O)[C@@H]2C[C@@H]3c4cccc5[nH]cc(c45)C[C@H]3N(C)C2)O[C@@]2(O)[C@@H]3CCCN3C(=O)[C@H](Cc3ccccc3)N2C1=O.CS(=O)(=O)O` [DIHYDROERGOCRISTINE MESYLATE], the concentration for half-maximal inhibition (IC50) in series [1] (read-out: IC50) is 1.99 nM; in series [2], “Not Active”; in series [3], “Not Active”; in series [4] it was “Not Active”; in series [5], “Not Active”; in series [6], “Not Active”. Also, the Ki is 0.747 nM in series [1], “Not Active” in series [2], “Not Active” in series [5] and “Not Active” in series [6].

Take `CC(=O)O[C@@]12CO[C@@H]1C[C@H](O)[C@@]1(C)C(=O)[C@H](O)C3=C(C)[C@@H](OC(=O)[C@H](O)[C@@H](NC(=O)OC(C)(C)C)c4ccccc4)C[C@@](O)([C@@H](OC(=O)c4ccccc4)[C@H]21)C3(C)C.O.O.O` [DOCETAXEL]: the IC50 entry in series [1] (sf9), in series [2], in series [3], in series [4], in series [5] and in series [6] was “Not Active” throughout. Moreover, the inhibition constant Ki result in series [2], in series [5] and in series [6] was “Not Active” throughout.

As to `C[C@H]1c2cccc(O)c2C(=O)C2=C(O)[C@]3(O)C(=O)C(C(N)=O)=C(O)[C@@H](N(C)C)[C@@H]3[C@@H](O)[C@@H]21.O` [DOXYCYCLINE], the IC50 result in series [1] (sf9), in series [2], in series [3], in series [4], in series [5] and in series [6] was “Not Active” throughout. The Ki result in series [2], in series [5] and in series [6] was “Not Active” in each case.

Take `CC(C)[C@H]1C(=O)N2CCC[C@H]2[C@]2(O)O[C@](NC(=O)[C@@H]3C=C4c5cccc6[nH]cc(c56)C[C@H]4N(C)C3)(C(C)C)C(=O)N12` [ERGOCORNINE]: the half-maximal inhibitory concentration (IC50) in series [1] (read-out: IC50) was 6.3 nM; in series [2], “Not Active”; in series [3] it was “Not Active”; in series [4], “Not Active”; in series [5], “Not Active”; in series [6], “Not Active”. Besides, the inhibition constant Ki in series [1] is 2.36 nM; in series [2], “Not Active”; in series [5] it was “Not Active”; in series [6], “Not Active”.

For `C[C@]12CC[C@@H]3c4ccc(O)cc4CC[C@H]3[C@@H]1CCC2=O` [ESTRONE], the IC50 entry in series [1] (sf9), in series [2], in series [3], in series [4], in series [5] and in series [6] was “Not Active” each time. Also, the Ki result in series [2], in series [5] and in series [6] was “Not Active” throughout.

For the compound `OC(Cn1cncn1)(Cn1cncn1)c1ccc(F)cc1F` [FLUCONAZOLE], the 50% inhibitory concentration (IC50) entry in series [1] (sf9), in series [2], in series [3], in series [4], in series [5] and in series [6] was “Not Active” in each case. In addition, the Ki entry in series [2], in series [5] and in series [6] was “Not Active” throughout.

With `CC(C)C(=O)Nc1ccc([N+](=O)[O-])c(C(F)(F)F)c1` [FLUTAMIDE], the IC50 entry in series [1] (sf9), in series [2], in series [3], in series [4], in series [5] and in series [6] was “Not Active” in each case. Also, the inhibitory constant (Ki) entry in series [2], in series [5] and in series [6] was “Not Active” each time.

Take `CC1(C)O[C@@H]2C[C@H]3[C@@H]4CCC5=CC(=O)CC[C@]5(C)[C@@]4(F)[C@@H](O)C[C@]3(C)[C@]2(C(=O)CCl)O1` [HALCINONIDE]: the IC50 entry in series [1] (sf9), in series [2], in series [3], in series [4], in series [5] and in series [6] was “Not Active” each time. Moreover, the inhibition constant Ki entry in series [2], in series [5] and in series [6] was “Not Active” throughout.
